Assay results taken from patent US10647680B2, “Urea compound, preparation method therefor and medical use thereof” (Ancureall Pharmaceutical (Shanghai) Co., Ltd., priority 2016, dated 2020).

What was measured:
AU565 (HER2/ErbB2 amp) = assay: In vitro growth inhibition (GI50), AU565; format: cell-based; conditions: Homo sapiens
Excerpt: Tumor cell line is an effective cell model for studying the inhibition of tumor cell growth or proliferation in vitro. In the present invention, a representative tumor cell line was selected to determine the cell growth inhibition activity of the present compound. All cell lines used were from ATCC, DSMZ, and the Cell Bank of the Chinese Academy of Sciences. Cell culture conditions and methods were in accordance with the requirements of each cell line. Cells were subcultured in vitro for no more than 3 passages each time, and as required, single-clone purification and identification of cell lines could be carried out.
The cell culture media used were RPMI1640 (Gibco), MEM (Gibco), McCOY'S5A (Gibco), and IMDM (Gibco). The complete medium was prepared by supplement with 5˜20% fetal calf serum (Gibco), 1% double-antibiotics (10000 units/mL penicillin and 10000 units/mL), 2 mM glutamine or 1 mM sodium pyruvate, respectively.
Human gastric cancer cell line NCI-N87 (HER2/ErbB2 amp, ATCC), human breast cancer cell line HCC1954 (HER2/ErbB2 amp, ATCC) and ZR-75-30 (HER2/ErbB2 amp, ATCC), human adenocarcinoma cell line AU565 (HER2/ErbB2 amp, ATCC), human lung squamous cell carcinoma cell line NCI-H2170 (HER2/ErbB2 amp, ATCC), human bronchioalveolar adenocarcinoma cell line NCI-H1781 (HER2/ErbB2 Ins G776V,C mutant type, ATCC) were cultured with a 1×RPMI1640 complete medium (10% FBS), respectively. Human lung adenocarcinoma cell line Calu-3 (HER2/ErbB2 amp, ATCC) was cultured with 1×MEM, 10% FBS, 1% double antibody, 1% NEAA (Gibco), 2 mM glutamine and 1 mM sodium pyruvate. The human breast cancer cell line SK-BR-3 (HER2/ErbB2 amp, ATCC) was cultured with a McCOY'S5A complete medium (10% FBS).
Adherent cells were digested with 0.25% pancreatin-EDTA (Gibco). The suspension cells were collected by centrifugation. The supernatant was discarded and the cell pellet was resuspended and counted. Different cell concentrations (5˜10×10^4 cells/mL) were prepared according to the growth cycle of each cell line and then seeded on a 96-well plate (Corning), 100 μL/well. The cells were incubated overnight at 37° C., 5% CO2. The compounds were added to the cells on the second day with 2 wells in parallel. The final concentration of organic solvent shall not exceed 1%. The cells were continually incubated for 3 to 5 days, and then subjected to MTT assay.
The compound of the present invention and the control compound were dissolved in DMSO (Sigma) respectively, with the purity of more than 98%. The compound was stored in a concentration of 10 mM at −20° C. and diluted to 2- or 10-fold series prior to use.
Dojindo CCK8 reagent kit was used as MTT assay. THERMO […] FC meter was used as microplate reader.
For adherent cells, culture medium was removed and immediately replaced with the fresh prepared medium which contains 10% CCK8 reagent (100 μL/well). For the suspension cells, CCK8 was directly added to 10% of the final concentration. The cells were continually incubated for 1˜4 h. When a dark yellow color could be observed in the solvent control wells, the absorbance value at OD450 nm was measured and the cell growth rate was calculated according to the following formula: Cell Growth Rate (%)=100*(T−T0)/(C−T0) T=optical density of drug treatment cell well—optical density of blank control well; T0=optical density of cell well before drug treatment—optical density of blank control well; C=optical density of cell well of solvent control group—optical density of blank control well. The concentration value of 50% inhibition of cell growth (GI50) was calculated according to the drug concentration and cell growth rate curve. The experiment was independently repeated 1˜3 times, and subject to biological statistical analysis. 4. Experimental Results
Tumor cell growth inhibition test was performed by selecting representative compounds (compounds 4, 11, 12, 16, 27, 68, 71, 77, 79, 89 and 116 of the present invention). […]

[1] = test system: MOLM-13 (FLT3 ITD+/− mutant type); assay: In vitro growth inhibition (GI50), MOLM-13; format: cell-based, human; conditions: for GI50: Homo sapiens, MOLM-13, Cell lines of leukemia, read-out: GI 50 MOLM-13 FLT3 (ITD+/−); for inhibition activity against the growth of MOLM-13 cells compared with AC220: compared with the control compound AC220
[2] = test system: KG-1 (expressing FGFR1OP2-FGFR1 fusion protein); assay: In vitro growth inhibition (GI50), KG-1; format: cell-based; conditions: Homo sapiens; Cell lines of leukemia; read-out: GI 50 KG-1 FGFR1OP 2-FGFR1
[3] = test system: OCI-AML3 (NPMc+ mutant type); assay: In vitro growth inhibition (GI50), OCI-AML3; format: cell-based; conditions: Homo sapiens, OCI-AML-3; Cell lines of leukemia; read-out: GI 50 OCI- AML3 NPMc+

Compound | GI50 [1] [nM] | GI50 [3] [nM] | GI50 (AU565 (HER2/ErbB2 amp)) [nM] | GI50 [2] [nM] | inhibition activity against the growth of MOLM-13 cells compared with AC220 [1]
CC(C)(C)c1cc(N)n(C(=O)Nc2ccc(-n3cnc4ccccc43)cc2)n1 [Compound 116, 5-amino-3-tert-butyl-pyrazol-1-carboxylic acid (4-benzimidazol-1-yl-phenyl)-amide] | 10 to 100 | > 1000 | > 2500 | > 1000 | 
COCCOc1ccc2c(c1)ncn2-c1ccc(NC(=O)Nc2cc(C(C)(C)C)n[nH]2)cc1 [Compound 77, 1-(5-tert-butyl-2H-pyrazol-3-yl)-3-{4-[5-(2-methoxyl-ethoxyl)-benzimidazol-1-yl]-phenyl}-urea] | 0.01 to 0.1 | > 1000 | > 2500 | > 1000 | stronger inhibition activity
CC(C)(C)c1cc(NC(=O)Nc2ccc(-n3cnc4cc(OCCN5CCOCC5)ccc43)cc2)[nH]n1 [Compound 89, 1-(5-tert-butyl-2H-pyrazol-3-yl)-3-{4-[5-(2-morpholin-4-yl-ethoxyl)-benzimidazol-1-yl]-phenyl}-urea] | 0.1 to 1 | 100 to 1000 | > 2500 | > 1000 | stronger inhibition activity
CC(C)(C)c1cc(NC(=O)Nc2ccc(-n3cnc4cc(O)ccc43)cc2)no1 [Compound 4, 1-(5-tert-butyl-isoxazol-3-yl)-3-[4-(5-hydroxy-benzimidazol-1-yl)-phenyl]-urea] | 0.1 to 1 | > 1000 | > 2500 | 100 to 1000 | 
CC(C)(C)c1cc(NC(=O)Nc2ccc(-n3cnc4cc(OCCO)ccc43)cc2)[nH]n1 [Compound 79, 1-(5-tert-butyl-2H-pyrazol-3-yl)-3-{4-[5-(2-hydroxy-ethoxyl)-benzimidazol-1-yl]-phenyl]urea] | 0.1 to 1 | > 1000 | > 2500 | > 1000 | stronger inhibition activity

The next lines start with results.

GI50 [1] [nM] | GI50 [3] [nM] | Compound | GI50 (AU565 (HER2/ErbB2 amp)) [nM] | GI50 [2] [nM] | inhibition activity against the growth of MOLM-13 cells compared with AC220 [1]
0.1 to 1 | 100 to 1000 | CC(C)(C)c1cc(NC(=O)Nc2ccc(-n3cnc4ccc(OCCN5CCOCC5)cc43)cc2)no1 [Compound 27, 1-(5-tert-butyl-isoxazol-3-yl)-3-{4-[6-(2morpholin-4-yl-ethoxyl)-benzimidazol-1-yl]-phenyl}-urea] | > 2500 | 100 to 1000 | 
0.01 to 0.1 | > 1000 | CC(C)(C)c1cc(NC(=O)Nc2ccc(-n3cnc4cc(OCCO)ccc43)cc2)no1 [Compound 11, 1-(5-tert-butyl-isoxazol-3-yl)-3-{4-[5-(2-hydroxy-ethoxyl)-benzimidazol-1-yl]-phenyl]-urea] | > 2500 | > 1000 | stronger inhibition activity
0.1 to 1 | > 1000 | CC(C)(C)c1cc(NC(=O)Nc2ccc(-n3cnc4cc(OCCN5CCOCC5)ccc43)cc2)no1 [Compound 16, 1-(5-tert-butyl-isoxazol-3-yl)-3-{4-[5-(2-morpholin-4-yl-ethoxyl)-benzimidazol-1-yl]-phenyl}-urea] | > 2500 | > 1000 | 
0.1 to 1 | > 1000 | CC(C)(C)c1cc(NC(=O)Nc2ccc(-n3cnc4ccccc43)cc2)[nH]n1 [Compound 68, 1-(4-benzimidazol-1-yl-phenyl)-3-(5-tert-butyl-2H-pyrazol-3-yl)-urea] | > 2500 | > 1000 | 
0.01 to 0.1 | > 1000 | COc1ccc2c(c1)ncn2-c1ccc(NC(=O)Nc2cc(C(C)(C)C)n[nH]2)cc1 [Compound 71, 1-(5-tert-butyl-2H-pyrazol-3-yl)-3-[4-(5-methoxyl-benzimidazol-1-yl)-phenyl]-urea] | > 2500 | > 1000 | stronger inhibition activity
